{
  "source": "patent US6667342B1",
  "about": "“Benzenesulfonamide-derivatives and their use as medicaments” (Astrazeneca AB, priority 1998, dated 2003)",
  "origin": "cited, not measured here",
  "key": {"[1]": {"test_system": "PDH"}},
  "data": [
    {"molecule": "O=C(O)C(Cl)Cl", "note": "[DCA, dichloroacetic acid]", "values": [
      {"measurement": "activity of PDH", "setting": "[1]; after acute administration in animals (Vary et al. 1988)", "result": "increases"},
      {"measurement": "proportion of PDH in its active form", "setting": "[1]; single administration, 150 mg/kg, intraperitoneally (Vary et al. 1988)", "result": "increased"},
      {"measurement": "glycaemia", "setting": "Stacpoole et al. 1978", "result": "reducing glycaemia"},
      {"measurement": "plasma glucose", "setting": "after repeated administration (Evans and Stacpoole 1982)", "result": "significant decrease"}
    ]}
  ]
}
